Laboratory results reported in patent US20220023381A1, “VDAC INHIBITORS FOR TREATING AUTOIMMUNE DISEASES” (NATIONAL INSTITUTE FOR BIOTECHNOLOGY IN THE NEGEV LTD., priority 2018, published 2022).

Experiments:
EndoG−/− MEFs [1] = assay: ISG expression in EndoG−/− MEFs (real-time PCR / western blot); format: cell-based, mouse; settings: VBIT-4 (10 μM), real-time PCR
Description: All MEFs were grown in complete Dulbecco's modified Eagle's medium (DMEM, Corning) supplemented with 10% fetal bovine serum (FBS, Sigma-Aldrich) and 1% penicillin and streptomycin (antibiotics, Gibco) at 37° C. with 5% CO2.
Total RNA was extracted using RNeasy Plus Mini Kit (Qiagen) according to the manufacturer's instructions. The first-strand cDNA was synthesized from 2 μg purified mRNA using Accupower RT PreMix (BioNeer). The reaction mixtures were incubated at 42° C. for 60 min and 94° C. for 5 min. Real-time RT-PCR was performed using the LightCycler 96 system (Roche Life Science) with SYBR Green master mix (Roche). The primers used were as follow (5′-3′): EndoG forward (SEQ ID NO:36), and reverse (SEQ ID NO:37); Cxcl10 forward (SEQ ID NO:38), and reverse (SEQ ID NO:39); GAPDH forward (SEQ ID NO:40), and reverse (SEQ ID NO:41); Ifi44 forward (SEQ ID NO:42), and reverse (SEQ ID NO:43); Ifit1 forward (SEQ ID NO:44), and reverse (SEQ ID NO:45); Ifit3 forward (SEQ ID NO:46), and reverse (SEQ ID NO:47); IFNα4 forward (SEQ ID NO:48), and reverse (SEQ ID NO:49); IFNβ forward (SEQ ID NO:50), and reverse (SEQ ID NO:51); Iigp1 forward (SEQ ID NO:52), and reverse (SEQ ID NO:53); ISG15 forward (SEQ ID NO:54), and reverse (SEQ ID NO:55); Oasl2 forward (SEQ ID NO:56), and reverse (SEQ ID NO:57); Rsad2 forward (SEQ ID NO:58), and reverse (SEQ ID NO:59); USP18 forward (SEQ ID NO:60), and reverse (SEQ ID NO:61); VDAC1 forward (SEQ ID NO:62), and reverse (SEQ ID NO:63). GAPDH was used as an internal standard of mRNA expression, and the ratio of the target gene expression to GAPDH expression was calculated using LightCycler 96 Instrument software (Roche). The quality of real-time RT-PCR results was evaluated based on the melting temperature (Tm) of a DNA fragment and melting curve analysis.

EndoG−/− MEFs [2] = assay: Quantification of cytosolic mtDNA (cmtDNA) in EndoG−/− MEFs; format: cell-based, mouse; settings: VBIT-4 (10 μM), real-time PCR
Description: MEFs were resuspended in 170 μl digitonin buffer containing 150 mM NaCl, 50 mM HEPES pH 7.4, and 25 μg/ml digitonin (EMD Millipore Corp). The homogenates were incubated on a rotator for 10 min at room temperature, followed by centrifugation at 16,000 g for 25 min at 4° C. A 1:20 dilution of the supernatant (cmtDNA) was used for real-time RT-PCR. The pellet was resuspended in 340 μl lysis buffer containing 5 mM EDTA and proteinase K (Qiagen) and incubated at 55° C. overnight. The digested pellet was diluted with water (1:20 to 1:100) and heated at 95° C. for 20 min to inactivate proteinase K, and the sample was used for real-time PCR. The primers used were as follow (5′-3′): D-loop1 forward (SEQ ID NO:64), and reverse (SEQ ID NO:65); D-loop2 forward (SEQ ID NO:66), and reverse (SEQ ID NO:67); D-loop3 forward (SEQ ID NO:68), and reverse (SEQ ID NO:69). The cmtDNA in the supernatant was normalized to the total mitochondrial DNA in the pellet for each sample.

rat liver mitochondria = assay: Ca2+ accumulation by isolated mitochondria; settings: purified mitochondria
Description: The PTP opening was analyzed following mitochondria swelling. Briefly, freshly isolated mitochondria (0.5 mg/ml) were incubated for 2 min at 24° C. with the indicated concentrations of VBIT-4 for Ca^2+-induced mitochondrial swelling assay. Swelling was initiated by the addition of Ca^2+ (0.1 mM) to the sample cuvette. Absorbance changes at 520 nm were monitored every 16 s for 15 min. Cyclosporine A 10 μM) was used as a positive control. […] Ca^2+ accumulation by freshly isolated rat liver mitochondria (0.5 mg/ml) was assayed with the indicated concentrations of VBIT-4 in the presence of […] CaCl2) (containing [^45Ca^2+]), 220 mM mannitol, 70 mM sucrose, 5 mM succinate, 0.15 mM Pi and 15 mM Tris/HCl, pH 7.2. Ca^2+ uptake was terminated by rapid Millipore filtration (0.45 μm).

VDAC1 [3] = molecular target: T1, VDAC1 (Rattus norvegicus, UniProt Q9Z2L0); assay: mtDNA efflux from liposomes reconstituted with VDAC1; format: biochemical; settings: VDAC1-containing mtDNA-loaded liposomes
T1 construct: from tissue; host or cells: rat liver mitochondria (inferred)

VDAC1 [4] = molecular target: T1, VDAC1; assay: Micro-scale thermophoresis (MST) interaction with VDAC1; format: binding; settings: without prior exposure to high voltage
[5] = system: low-density granulocytes (LDG) and normal-density granulocytes (NDG); assay: NET formation (NETosis) in granulocytes; format: cell-based, human
Description: Normal-density granulocytes (NDGs) were isolated from heparinized venous blood using a Ficoll-Paque gradient (GE Healthcare) with dextran (Sigma-Aldrich) sedimentation, followed by red blood cell lysis using hypotonic NaCl. From the PBMC layer, low-density granulocytes (LDGs) were isolated using a negative selection method. The cells were resuspended in RPMI 1640 medium for further characterization. NETs were induced in NDGs by incubating cells with calcium ionophore A23187 (25 μM) (Thermo Fisher) in RPMI 1640 medium for 2 h, and NETs were quantified using SYTOX fluorescent dye at 485/520 nm to quantify extracellular DNA. The fluorescence of PicoGreen (Life Technologies) at t=0 min was measured at 485/520 nm […] to quantify the total DNA. The fluorescence was quantified using a microplate reader (Synergy HTX; BIOTEK). NETs were also quantified by fluorescence microscopy. Briefly, the cells were attached to coverslip chambers, stimulated for 90 min at 37° C. with calcium ionophore, fixed with 4% paraformaldehyde overnight at 4° C., and permeabilized with 0.2% Triton X-100 for 10 min, followed by 0.5% gelatin for 20 min. The cells were stained with antibodies against human neutrophil elastase (ab21595, Abcam) for 2 h at room temperature, washed in PBS, and stained with Hoechst 33342 (Life Technologies) and Alexa Fluor 488 secondary antibody (A31570, Life Technologies) for 2 h at room temperature. After mounting, the cells were visualized with a LSM780 confocal microscope.

T1 sequence (Q9Z2L0 whole entry): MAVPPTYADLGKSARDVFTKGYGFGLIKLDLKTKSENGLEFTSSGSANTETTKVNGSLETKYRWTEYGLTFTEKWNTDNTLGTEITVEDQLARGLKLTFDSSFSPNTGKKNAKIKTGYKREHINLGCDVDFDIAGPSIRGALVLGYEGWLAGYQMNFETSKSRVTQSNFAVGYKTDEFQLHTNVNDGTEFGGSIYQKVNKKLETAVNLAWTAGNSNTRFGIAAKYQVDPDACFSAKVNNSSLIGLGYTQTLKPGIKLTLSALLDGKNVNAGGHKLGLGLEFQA

`O=C(CC(CO)N1CCN(c2ccc(OC(F)(F)F)cc2)CC1)Nc1ccc(Cl)cc1` (stereo not drawn) [VBIT-4, N-(4-chlorophenyl)-4-hydroxy-3-(4-(4-(trifluoromethoxy)phenyl)-piperazin-1-yl)butanamide] was tested, and the ISG expression (EndoG−/− MEFs [1]) was “decreased”, the cmtDNA (EndoG−/− MEFs [2]) was “decreased” and the “Ca2+ uptake” value (rat liver mitochondria) was “did not prevent”. For the same molecule, the “mtDNA release from liposomes” value (VDAC1 [3]) was “decreased”, the “interaction with VDAC1 measured by MST” value (VDAC1 [4]) was “did show interaction” and the NETosis ([5]; LDG from lupus patients, spontaneous NET formation, VBIT-4 (5 μM), microscopy) was “strongly inhibited”. The NETosis ([5]; NDG from healthy controls, SYTOX-PicoGreen plate assay) was “strongly inhibited”, the NETosis ([5]; NDG from lupus patients, A23187-stimulated, microscopy) was “strongly inhibited” and the NETosis ([5]; NDG from lupus patients, SYTOX-PicoGreen plate assay) was “strongly inhibited”.
